# Source: PMC5108082, “Pharmacokinetics, toxicity, and cytochrome P450 modulatory activity of plumbagin” (BMC Pharmacology & Toxicology, 2016)
# What was measured:
# CYP1A2 mRNA = CYP1A2 mRNA expression in livers of treated mice (RT-PCR); assay type: in vivo, mouse; conditions: mice, 25, 12.5, 6.25 mg/kg daily oral for 28 days vs control
# Protocol: Mice were divided into four groups (3 male mice each). Mice in the treated groups were fed with plumbagin at a daily oral dose of 25, 12.5, or 6.25 mg/kg body weight (1 mL) for 28 days. The control group received a daily oral dose (1 mL) of 20 % Tween-80 for 28 days. At the end of the experiment period, all animals were sacrificed under ether anesthesia and livers were removed for investigation of the modulatory effect of plumbagin on hepatic CYP1A2 and CYP3A11.
# The liver sample isolated from each mouse was rinsed with ice-cold, 0.9 % NaCl and total RNA was prepared using Trizol^TM reagent according to the manufacturer’s protocol (Invitrogen, Karlsruhe, Germany). Briefly, the sample was homogenized in TRIZOL reagent (1 mL) per 50–100 mg of tissue. The homogenized sample was incubated at 25 °C for 5 min and chloroform (0.2 mL/1 mL of TRIZOL reagent) was added. The sample was thoroughly mixed and incubated at 25 °C for 3 min. Following centrifugation (12,000 × g for 15 min, 2–8 °C), the sample was separated into a lower red phenol-chloroform phase, an interphase, and a colorless upper aqueous phase. […] The RNA pellets were dried and dissolved in 20 μL DEPC-treated water and the concentrations were determined using NanoDrop Spectrophotometry (NanoDrop Technologies, Wilmington, DE, USA). […]
# [1] = tested on: 3D7 chloroquine-sensitive P. falciparum; conditions: 3D7 clone; read-out: median IC50; cited from earlier work
structure (smiles),measurement,setting,value
"CC1=CC(=O)c2c(O)cccc2C1=O [plumbagin, 5-hydroxy-2-methyl-1,4-naphthoquinone]",modulation of CYP1A2 mRNA expression,CYP1A2 mRNA,not found to induce or inhibit
same,modulation of CYP1A2 mRNA expression,CYP1A2 mRNA; listed as Plumbagin,did not significantly modulate
same,IC50,[1],580 nM
